Consider 15 compounds from patent US20250073340A1, “SPIROCYCLIC MDM2 MODULATOR AND USES THEREOF” (Newave Pharmaceutical Inc., priority 2021, published 2025).

Molecules are shown by their SMILES.

Sequence of MDM2 (Q00987 whole entry): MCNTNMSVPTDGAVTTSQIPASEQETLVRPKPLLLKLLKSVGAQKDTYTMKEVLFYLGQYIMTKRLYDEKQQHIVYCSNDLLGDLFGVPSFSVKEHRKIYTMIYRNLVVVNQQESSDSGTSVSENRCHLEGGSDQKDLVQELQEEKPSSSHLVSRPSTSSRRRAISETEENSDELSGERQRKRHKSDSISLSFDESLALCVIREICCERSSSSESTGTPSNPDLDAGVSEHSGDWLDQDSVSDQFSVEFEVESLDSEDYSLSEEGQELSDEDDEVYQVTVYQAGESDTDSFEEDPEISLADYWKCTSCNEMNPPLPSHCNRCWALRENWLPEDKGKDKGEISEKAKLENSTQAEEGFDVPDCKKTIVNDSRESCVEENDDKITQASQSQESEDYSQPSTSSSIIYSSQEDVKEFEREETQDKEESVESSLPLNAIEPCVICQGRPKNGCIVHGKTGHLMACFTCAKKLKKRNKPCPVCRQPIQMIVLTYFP

The first experiment concerns the target MDM2 (Homo sapiens (Human), UniProt Q00987). As to the kind of experiment: In vitro MDM2 HTRF assay (inhibition of p53-MDM2 interaction). The class given is binding. Particulars: GST-MDM2 / biotinylated p53 peptide.
`COc1cc(C(N)=O)ccc1NC(=O)[C@H]1N[C@H](CC(C)(C)C)[C@]2(CNc3cc(Cl)ncc32)[C@@H]1c1cccc(Cl)c1F` [Example 10, (2R,3R,4R,5S)—N-(4-carbamoyl-2-methoxyphenyl)-6′-chloro-4-(3-chloro-2-fluorophenyl)-2-(2,2-dimethylpropyl)-1′,2′-dihydrospiro[pyrrolidine-3,3′-pyrrolo[3,2-c]pyridine]-5-carboxamide] yielded an IC50 of 276 nM. Compound `COc1cc(C(N)=O)ccc1NC(=O)[C@H]1N[C@H](CC(C)(C)C)[C@]2(CNc3cc(C(F)(F)F)ncc32)[C@@H]1c1cccc(Cl)c1F` [Example 12, (2R,3R,4R,5S)—N-(4-carbamoyl-2-methoxyphenyl)-4-(3-chloro-2-fluorophenyl)-2-(2,2-dimethylpropyl)-6′-(trifluoromethyl)-1′,2′-dihydrospiro[pyrrolidine-3,3′-pyrrolo[3,2-c]pyridine]-5-carboxamide] returned an IC50 of 103 nM. The same measure, in the same setting: in the case of `COc1cc(C(=O)NCCCC#Cc2cccc3c2CN(C2CCC(=O)N(C)C2=O)C3=O)ccc1NC(=O)[C@@H]1N[C@@H](CC(C)(C)C)[C@@]2(CNc3cc(Cl)ccc32)[C@H]1c1cccc(Cl)c1F` (stereo partly drawn) [Example 19, (2′S,3S,4′S,5′R)-6-chloro-4′-(3-chloro-2-fluorophenyl)-2′-(2,2-dimethylpropyl)-N-[2-methoxy-4-({5-[2-(1-methyl-2,6-dioxopiperidin-3-yl)-1-oxo-3H-isoindol-4-yl]pent-4-yn-1-yl}carbamoyl)phenyl]-1,2-dihydrospiro[indole-3,3′-pyrrolidine]-5′-carboxamide] it was 2.03 nM.

In a further experiment the test system is BCL-2-dependent acute lymphoblastic leukemia (ALL) cell line RS4;11 overexpressing Bcl-2 G101V. Put plainly: cells. The settings on record: Homo sapiens, RS4-11, 72 h, read-out: RS4;11-G101V IC50. The class given is cell-based. Here is the method:
Biological Example 2: In vitro Anti-proliferation Assay in BCL-2-dependent acute lymphoblastic leukemia (ALL) cell line RS4; 11 overexpressing Bcl-2 G101V
Cell antiproliferation was assayed by PerkinElmer ATPlite™ Luminescence Assay System. Briefly, the various test cancer cell lines were plated at a density of about 1×10^4 cells per well in Costar 96-well plates, and were incubated with different concentrations of compounds for about 72 hours in medium supplemented with 5% FBS or 10% normal human serum (NHS). One lyophilized substrate solution vial was then reconstituted by adding 5 mL of substrate buffer solution, and was agitated gently until the solution was homogeneous. About 50 μL of mammalian cell lysis solution was added to 100 μL of cell suspension per well of a microplate, and the plate was shaken for about five minutes in an orbital shaker at −700 rpm. This procedure was used to lyse the cells and to stabilize the ATP. Next, 50 μL substrate solution was added to the wells and microplate was shaken for five minutes in an orbital shaker at −700 rpm. Finally, the luminescence was measured by a PerkinElmer TopCount® Microplate Scintillation Counter. Such assays, carried out with a range of doses of test compounds, allowed the determination of the cellular anti-antiproliferative IC50 of the compounds of the present invention.
As to `COc1cc(C(N)=O)ccc1NC(=O)[C@@H]1N[C@@H](CC(C)(C)C)[C@@]2(CNc3cc(Cl)ccc32)[C@H]1c1cccc(Cl)c1F` [Example 1, (2′S,3S,4′S,5′R)—N-(4-carbamoyl-2-methoxyphenyl)-6-chloro-4′-(3-chloro-2-fluorophenyl)-2′-neopentylspiro[indoline-3,3′-pyrrolidine]-5′-carboxamide], the IC50 worked out at 33 nM.

The same experiment, now with this note: Homo sapiens, RS4-11; about 72 hours, ATPlite luminescence; read-out: RS4;11-G101V IC50.
For `COc1cc(C(N)=O)ccc1NC(=O)[C@@]1(C)N[C@H](CC(C)(C)C)[C@]2(CNc3cc(Cl)ccc32)[C@@H]1c1cccc(Cl)c1F` [Example 8, (2′R,3R,4′R,5′S)—N-(4-carbamoyl-2-methoxyphenyl)-6-chloro-4′-(3-chloro-2-fluorophenyl)-2′-(2,2-dimethylpropyl)-5′-methyl-1,2-dihydrospiro[indole-3,3′-pyrrolidine]-5′-carboxamide], the IC50 amounted to 127 nM. The same measure, in the same setting: in the case of `COc1cc(C(=O)N[C@H]2CCCC[C@H]2CC#Cc2cccc3c2CN(C2CCC(=O)NC2=O)C3=O)ccc1NC(=O)[C@@H]1N[C@@H](CC(C)(C)C)[C@@]2(CNc3cc(Cl)ccc32)[C@H]1c1cccc(Cl)c1F` (stereo partly drawn) [Example 40, (2′S,3S,4′S,5′R)-6-chloro-4′-(3-chloro-2-fluorophenyl)-2′-(2,2-dimethylpropyl)-N-(4-{[(1S,2S)-2-{3-[2-(2,6-dioxopiperidin-3-yl)-1-oxo-3H-isoindol-4-yl]prop-2-yn-1-yl}cyclohexyl]carbamoyl}-2-methoxyphenyl)-1,2-dihydrospiro[indole-3,3′-pyrrolidine]-5′-carboxamide] it was 11.4 nM. The same measure, in the same setting: in the case of `COc1cc(C(=O)N[C@@H]2CCCC[C@@H]2CC#Cc2cccc3c2CN(C2CCC(=O)NC2=O)C3=O)ccc1NC(=O)[C@@H]1N[C@@H](CC(C)(C)C)[C@@]2(CNc3cc(Cl)ccc32)[C@H]1c1cccc(Cl)c1F` (stereo partly drawn) [Example 41, (2′S,3S,4′S,5′R)-6-chloro-4′-(3-chloro-2-fluorophenyl)-2′-(2,2-dimethylpropyl)-N-(4-{[(1R,2R)-2-{3-[2-(2,6-dioxopiperidin-3-yl)-1-oxo-3H-isoindol-4-yl]prop-2-yn-1-yl}cyclohexyl]carbamoyl}-2-methoxyphenyl)-1,2-dihydrospiro[indole-3,3′-pyrrolidine]-5′-carboxamide] it was 54.3 nM; in that of `COc1cc(C(=O)N2CCCC[C@@H]2C#CC#Cc2cccc3c2CN(C2CCC(=O)NC2=O)C3=O)ccc1NC(=O)[C@@H]1N[C@@H](CC(C)(C)C)[C@@]2(CNc3cc(Cl)ccc32)[C@H]1c1cccc(Cl)c1F` (stereo partly drawn) [Example 46, (2′S,3S,4′S,5′R)-6-chloro-4′-(3-chloro-2-fluorophenyl)-2′-(2,2-dimethylpropyl)-N-{4-[(2R)-2-{4-[2-(2,6-dioxopiperidin-3-yl)-1-oxo-3H-isoindol-4-yl]buta-1,3-diyn-1-yl}piperidine-1-carbonyl]-2-methoxyphenyl}-1,2-dihydrospiro[indole-3,3′-pyrrolidine]-5′-carboxamide], above 1000 nM. With `COc1cc(C(=O)N2CCCC[C@H]2C#CC#Cc2cccc3c2CN(C2CCC(=O)NC2=O)C3=O)ccc1NC(=O)[C@@H]1N[C@@H](CC(C)(C)C)[C@@]2(CNc3cc(Cl)ccc32)[C@H]1c1cccc(Cl)c1F` (stereo partly drawn) [Example 47, (2′S,3S,4′S,5′R)-6-chloro-4′-(3-chloro-2-fluorophenyl)-2′-(2,2-dimethylpropyl)-N-{4-[(2S)-2-{4-[2-(2,6-dioxopiperidin-3-yl)-1-oxo-3H-isoindol-4-yl]buta-1,3-diyn-1-yl}piperidine-1-carbonyl]-2-methoxyphenyl}-1,2-dihydrospiro[indole-3,3′-pyrrolidine]-5′-carboxamide], the IC50 is above 1000 nM. The same measure, in the same setting: in the case of `COc1cc(C(=O)N2CC(C#Cc3cccc4c3CN(C3CCC(=O)NC3=O)C4=O)C2)ccc1NC(=O)[C@@H]1N[C@@H](CC(C)(C)C)[C@@]2(CNc3cc(Cl)ccc32)[C@H]1c1cccc(Cl)c1F` (stereo partly drawn) [Example 55, (2′S,3S,4′S,5′R)-6-chloro-4′-(3-chloro-2-fluorophenyl)-2′-(2,2-dimethylpropyl)-N-[4-(3-{2-[2-(2,6-dioxopiperidin-3-yl)-1-oxo-3H-isoindol-4-yl]ethynyl}azetidine-1-carbonyl)-2-methoxyphenyl]-1,2-dihydrospiro[indole-3,3′-pyrrolidine]-5′-carboxamide] it was 11.2 nM.

As to `COc1cc(C(=O)N2CCC[C@@]3(C[C@H]3C#Cc3cccc4c3CN([C@H]3CCC(=O)NC3=O)C4=O)C2)ccc1NC(=O)[C@@H]1N[C@@H](CC(C)(C)C)[C@@]2(CNc3cc(Cl)ccc32)[C@H]1c1cccc(Cl)c1F` [Example 61, (2′S,3S,4′S,5′R)-6-chloro-4′-(3-chloro-2-fluorophenyl)-2′-(2,2-dimethylpropyl)-N-{4-[(1S,3S)-1-(2-{2-[(3S)-2,6-dioxopiperidin-3-yl]-1-oxo-3H-isoindol-4-yl}ethynyl)-5-azaspiro[2.5]octane-5-carbonyl]-2-methoxyphenyl}-1,2-dihydrospiro[indole-3,3′-pyrrolidine]-5′-carboxamide], the IC50 amounted to 5.75 nM.

For the compound `COc1cc(C(=O)N2CCC[C@@]3(C[C@@H]3C#Cc3cccc4c3CN([C@H]3CCC(=O)NC3=O)C4=O)C2)ccc1NC(=O)[C@@H]1N[C@@H](CC(C)(C)C)[C@@]2(CNc3cc(Cl)ccc32)[C@H]1c1cccc(Cl)c1F` [Example 62, (2′S,3S,4′S,5′R)-6-chloro-4′-(3-chloro-2-fluorophenyl)-2′-(2,2-dimethylpropyl)-N-{4-[(1R,3S)-1-(2-{2-[(3S)-2,6-dioxopiperidin-3-yl]-1-oxo-3H-isoindol-4-yl}ethynyl)-5-azaspiro[2.5]octane-5-carbonyl]-2-methoxyphenyl}-1,2-dihydrospiro[indole-3,3′-pyrrolidine]-5′-carboxamide], the IC50 turned out to be 40.2 nM. On the same count and under the same terms, in the case of `COc1cc(C(=O)N2CCC[C@]3(C[C@H]3C#Cc3cccc4c3CN([C@H]3CCC(=O)NC3=O)C4=O)C2)ccc1NC(=O)[C@@H]1N[C@@H](CC(C)(C)C)[C@@]2(CNc3cc(Cl)ccc32)[C@H]1c1cccc(Cl)c1F` [Example 63, (2′S,3S,4′S,5′R)-6-chloro-4′-(3-chloro-2-fluorophenyl)-2′-(2,2-dimethylpropyl)-N-{4-[(1S,3R)-1-(2-{2-[(3S)-2,6-dioxopiperidin-3-yl]-1-oxo-3H-isoindol-4-yl}ethynyl)-5-azaspiro[2.5]octane-5-carbonyl]-2-methoxyphenyl}-1,2-dihydrospiro[indole-3,3′-pyrrolidine]-5′-carboxamide] it was 41.6 nM; in that of `COc1cc(C(=O)N2CCC[C@]3(C[C@@H]3C#Cc3cccc4c3CN([C@H]3CCC(=O)NC3=O)C4=O)C2)ccc1NC(=O)[C@@H]1N[C@@H](CC(C)(C)C)[C@@]2(CNc3cc(Cl)ccc32)[C@H]1c1cccc(Cl)c1F` [Example 64, (2′S,3S,4′S,5′R)-6-chloro-4′-(3-chloro-2-fluorophenyl)-2′-(2,2-dimethylpropyl)-N-{4-[(1R,3R)-1-(2-{2-[(3S)-2,6-dioxopiperidin-3-yl]-1-oxo-3H-isoindol-4-yl}ethynyl)-5-azaspiro[2.5]octane-5-carbonyl]-2-methoxyphenyl}-1,2-dihydrospiro[indole-3,3′-pyrrolidine]-5′-carboxamide], 188 nM; in that of `COc1cc(C(=O)O)ccc1NC(=O)[C@@H]1N[C@@H](CC(C)(C)C)[C@](C#N)(c2ccc(Cl)cc2F)[C@H]1c1cccc(Cl)c1F` [RG7388, reference compound], 110 nM.
